Reference: the NIST ThermoML archive (doi:10.1021/je034041x)

What was measured:
[1] = xn = mol fraction of the nth substance listed; conditions: Liquid
[2] = Liquid

O=C=O [carbon dioxide] + O
[1]
Conditions | viscosity [mPa·s]
273.9 K, 670 kPa, x1 = 0.00869 | 1.855
274.2 K, 4630 kPa, x1 = 0.00295 | 2.827
274.3 K, 670 kPa, x1 = 0.00857 | 1.851
274.5 K, 670 kPa, x1 = 0.0085 | 1.839
274.6 K, 4610 kPa, x1 = 0.00294 | 2.951
274.7 K, 670 kPa, x1 = 0.00844 | 1.818
275 K, 670 kPa, x1 = 0.00834 | 1.794
275.1 K, 670 kPa, x1 = 0.00831 | 1.807
275.3 K, 670 kPa, x1 = 0.00824 | 1.771
275.6 K, 690 kPa, x1 = 0.00815 | 1.739
275.9 K, 690 kPa, x1 = 0.00805 | 1.705
276 K, 690 kPa, x1 = 0.00802 | 1.694
276.1 K, 4780 kPa, x1 = 0.00291 | 2.225
276.3 K, 4790 kPa, x1 = 0.00291 | 2.179
276.4 K, 690 kPa, x1 = 0.00789 | 1.647
276.5 K, 4810 kPa, x1 = 0.0029 | 2.171
276.7 K, 690 kPa, x1 = 0.00779 | 1.605
277.1 K, 690 kPa, x1 = 0.00766 | 1.604
277.5 K, 690 kPa, x1 = 0.00754 | 1.57
277.7 K, 4850 kPa, x1 = 0.00287 | 2.078
278.6 K, 4890 kPa, x1 = 0.00285 | 1.948
279.1 K, 710 kPa, x1 = 0.00702 | 1.438
279.3 K, 710 kPa, x1 = 0.00695 | 1.44
279.6 K, 4910 kPa, x1 = 0.00283 | 1.848
281 K, 710 kPa, x1 = 0.00641 | 1.367
281 K, 4910 kPa, x1 = 0.0028 | 1.728
281.8 K, 769 kPa, x1 = 0.00615 | 1.225
282.1 K, 729 kPa, x1 = 0.00605 | 1.267
282.1 K, 4920 kPa, x1 = 0.00277 | 1.539
282.2 K, 4870 kPa, x1 = 0.00277 | 1.576

O [water]
[2]
Conditions | viscosity [mPa·s]
273.9 K, 670 kPa | 1.833
274.2 K, 4630 kPa | 1.802
274.3 K, 670 kPa | 1.827
274.5 K, 670 kPa | 1.808
274.6 K, 4610 kPa | 1.804
274.7 K, 670 kPa | 1.774
275 K, 670 kPa | 1.737
275.1 K, 670 kPa | 1.725
275.3 K, 670 kPa | 1.705
275.6 K, 690 kPa | 1.683
275.9 K, 101.3 kPa | 1.64
275.9 K, 690 kPa | 1.66
276 K, 690 kPa | 1.652
276.1 K, 101.3 kPa | 1.637
276.1 K, 4780 kPa | 1.67
276.3 K, 101.3 kPa | 1.631
276.3 K, 4790 kPa | 1.652
276.4 K, 690 kPa | 1.622
276.5 K, 4810 kPa | 1.634
276.7 K, 101.3 kPa | 1.594
276.7 K, 690 kPa | 1.613
276.9 K, 101.3 kPa | 1.588
277.1 K, 690 kPa | 1.589
277.2 K, 101.3 kPa | 1.555
277.5 K, 690 kPa | 1.558
277.7 K, 4850 kPa | 1.459
278.3 K, 101.3 kPa | 1.491
278.6 K, 4890 kPa | 1.459
279.1 K, 710 kPa | 1.442
279.3 K, 101.3 kPa | 1.437
279.3 K, 710 kPa | 1.428
279.6 K, 4910 kPa | 1.425
279.9 K, 101.3 kPa | 1.405
281 K, 710 kPa | 1.357
281 K, 4910 kPa | 1.375
281.8 K, 769 kPa | 1.329
282.1 K, 729 kPa | 1.319
282.1 K, 4920 kPa | 1.338
282.2 K, 101.3 kPa | 1.286
282.2 K, 4870 kPa | 1.335
